Data taken from publication PMC11249012 (Journal of Medicinal Chemistry, 2024).
Like-named read-outs stand apart in the source and are kept apart here.

Target: HDAC4 (Homo sapiens, UniProt P56524)
Test: Biochemical assay for HDAC inhibition, HDAC4
Conditions: read-out: IC50 HDAC4

Sequence of HDAC4 (P56524 whole entry): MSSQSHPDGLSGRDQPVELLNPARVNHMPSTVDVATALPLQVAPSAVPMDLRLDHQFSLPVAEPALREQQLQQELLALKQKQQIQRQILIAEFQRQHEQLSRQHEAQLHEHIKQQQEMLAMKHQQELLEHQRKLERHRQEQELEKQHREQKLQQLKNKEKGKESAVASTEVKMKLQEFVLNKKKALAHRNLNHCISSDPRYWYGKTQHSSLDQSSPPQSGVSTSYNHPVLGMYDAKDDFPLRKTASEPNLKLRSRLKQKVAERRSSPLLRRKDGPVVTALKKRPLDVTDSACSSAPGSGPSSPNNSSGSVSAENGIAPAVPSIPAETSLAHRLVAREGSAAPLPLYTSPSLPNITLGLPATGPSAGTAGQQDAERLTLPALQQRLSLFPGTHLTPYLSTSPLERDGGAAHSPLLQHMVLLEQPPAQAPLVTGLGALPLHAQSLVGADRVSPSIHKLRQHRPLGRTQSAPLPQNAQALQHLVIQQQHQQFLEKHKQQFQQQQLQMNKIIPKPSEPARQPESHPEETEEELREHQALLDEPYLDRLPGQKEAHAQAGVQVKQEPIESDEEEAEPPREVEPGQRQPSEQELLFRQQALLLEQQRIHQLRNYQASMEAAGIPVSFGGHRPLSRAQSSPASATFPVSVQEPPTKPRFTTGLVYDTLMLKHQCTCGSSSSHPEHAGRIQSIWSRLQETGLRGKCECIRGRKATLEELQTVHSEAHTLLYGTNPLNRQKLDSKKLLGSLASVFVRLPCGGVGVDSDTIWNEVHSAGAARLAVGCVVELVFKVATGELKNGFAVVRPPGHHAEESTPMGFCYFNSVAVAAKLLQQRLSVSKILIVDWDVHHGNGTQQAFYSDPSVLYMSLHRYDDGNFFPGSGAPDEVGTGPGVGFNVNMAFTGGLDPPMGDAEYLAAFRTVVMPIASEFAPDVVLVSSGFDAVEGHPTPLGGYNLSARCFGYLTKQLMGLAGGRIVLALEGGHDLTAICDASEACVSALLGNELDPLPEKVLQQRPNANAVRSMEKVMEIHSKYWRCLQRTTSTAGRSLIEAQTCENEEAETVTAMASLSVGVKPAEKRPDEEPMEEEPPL

With `CCC(CC)(c1ccc(C(=O)NCCCCC(=O)NO)cc1)c1ccc(OCC(O)C(C)(C)C)c(C)n1` (centres unmarked) [ZG-126, 4-(3-(5-(2-Hydroxy-3,3-dimethylbutoxy)-6-methylpyridin-2-yl)pentan-3-yl)-N-(5-(hydroxyamino)-5-oxopentyl)benzamide] the IC50 was 68 µM and the IC50 (Table 1, purified enzyme, unit inferred) was 67.6 µM.
